Patent US9302999B2, “Substituted triazoles as herbicides” (E. I. DU PONT DE NEMOURS AND COMPANY, priority 2012, dated 2016)

Experiments:
Type in all cases: in vivo
[1] = tested on: morningglory (Ipomoea spp.); experiment: Test A pre-/postemergence: morningglory
Outline: (§1)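 Compounds, formulated with surfactant in non-phytotoxic solvent, were applied as a directed soil spray preemergence and as postemergence sprays to 2–10 cm, one- to two-leaf seedlings grown in loam soil blended with sand; visual injury, 0–100, assessed ~10 days post-treatment against untreated controls.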

[2] = tested on: barnyardgrass (Echinochloa crus-galli); experiment: Test A pre-/postemergence: barnyardgrass; details: Postemergence, 0 to 100 scale, 0 is no effect, 100 is complete control
Outline: as §1

[3] = tested on: foxtail, giant (giant foxtail, Setaria faberii); experiment: Test C pre-/postemergence: foxtail, giant
Outline: (§2)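 Visual injury scored 0–100 (100 = complete control) against untreated controls after 13–15 greenhouse days. Surfactant-containing solvent formulations applied either to soil after sowing (loam/sand) or over 1- to 4-leaf plants, 2–18 cm tall.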

[4] = tested on: barnyardgrass (Echinochloa crus-galli); experiment: Test B flooded paddy: barnyardgrass; details: Flood; 250 g ai/ha; applied to paddy water at 2-leaf stage; visually evaluated after 13 to 15 days
Outline: (§3)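 Two-leaf-stage plants, pots flooded (3 cm above soil) and treated through the water, which stayed at that depth. After 13–15 days in greenhouse conditions, visual assessment versus controls: 0 is no effect, 100 complete control, dash means no result.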

kochia (Kochia scoparia) = experiment: Test C pre-/postemergence: kochia; details: Postemergence
Outline: as §2

[5] = tested on: chickweed (common chickweed, Stellaria media); experiment: Test C postemergence: chickweed
Outline: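 Response values are visual ratings, 0 (no effect) to 100 (complete control), made by comparison with untreated controls 13 to 15 days after postemergence treatment of greenhouse-grown potted plants that were 2 to 18 cm high at spraying.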

soybean (Glycine max) = experiment: Test C pre-/postemergence: soybean
Outline: as §2

corn (Zea mays) = experiment: Test C pre-/postemergence: corn
Outline: as §2

[6] = tested on: velvetleaf (Abutilon theophrasti); experiment: Test A pre-/postemergence: velvetleaf
Outline: as §1

[7] = tested on: ducksalad (Heteranthera limosa); experiment: Test B flooded paddy: ducksalad; details: Flood; 250 g ai/ha; applied to paddy water at 2-leaf stage; visually evaluated after 13 to 15 days
Outline: as §3

[8] = tested on: large crabgrass (Digitaria sanguinalis); experiment: Test C pre-/postemergence: large crabgrass
Outline: as §2

[9] = Postemergence, 125 g ai/ha, 0 to 100 scale, 0 is no effect, 100 is complete control
[10] = Postemergence, 500 g ai/ha, 0 to 100 scale, 0 is no effect, 100 is complete control
[11] = Preemergence, 125 g ai/ha, 0 to 100 scale where 0 is no effect and 100 is complete control
[12] = Preemergence, 500 g ai/ha, 0 to 100 scale (0 no effect, 100 complete control)
[13] = Postemergence, 31 g ai/ha, scale 0 to 100 (0 no effect, 100 complete control)
[14] = Postemergence, 62 g ai/ha, scale 0 to 100 (0 no effect, 100 complete control)
[15] = Postemergence, 125 g ai/ha, scale 0 to 100, 0 no effect, 100 complete control
[16] = Postemergence, 250 g ai/ha, scale 0 to 100
[17] = Preemergence, 31 g ai/ha, scale 0 (no effect) to 100 (complete control)
[18] = Preemergence, 62 g ai/ha, scale of 0 to 100, 0 is no effect, 100 is complete control
[19] = Preemergence, 125 g ai/ha, scale 0 to 100, 0 no effect, 100 complete control
[20] = Preemergence, 250 g ai/ha, scale 0 to 100, 0 no effect, 100 complete control
[21] = 31 g ai/ha, scale 0 to 100 (0 no effect, 100 complete control)
[22] = 62 g ai/ha, scale 0 to 100 (0 no effect, 100 complete control)
[23] = 125 g ai/ha, scale 0 to 100, 0 no effect, 100 complete control

Structure (SMILES): CCCc1nn(-c2ccc(F)c(F)c2)nc1Oc1ccnc(C(F)(F)F)c1 [Compound 172]
- Plant response rating, Morningglory [1, 9]: 100
- Morningglory plant response rating [1, 10]: 100
- Plant response rating, Morningglory [1, 11]: 60
- Plant response rating, Morningglory [1, 12]: 80
- Plant response rating, Barnyardgrass ([2]; 125 g ai/ha): 90
- Barnyardgrass plant response rating ([2]; 500 g ai/ha): 90
- Plant response rating, Foxtail, Giant [3, 13]: 35
- Plant response rating, Foxtail, Giant [3, 14]: 35
- Plant response rating, Foxtail, Giant [3, 15]: 80
- Plant response rating, Foxtail, Giant [3, 16]: 95
- Plant response rating, Foxtail, Giant [3, 17]: 100
- Plant response rating, Foxtail, Giant [3, 18]: 100
- Plant response rating, Foxtail, Giant [3, 19]: 100
- Plant response rating, Foxtail, Giant [3, 20]: 100
- Plant response rating, Barnyardgrass (0 to 100 scale, 0 is no effect, 100 is complete control) [4]: 80
- Plant response rating, Kochia (kochia (Kochia scoparia); [21]): 90
- Plant response rating, Kochia (kochia (Kochia scoparia); [22]): 90
- Plant response rating, Kochia (kochia (Kochia scoparia); [23]): 90
- Plant response rating, Kochia (kochia (Kochia scoparia); 250 g ai/ha, scale 0 to 100 (0 no effect, 100 complete control)): 90
- Plant response rating, Chickweed [5, 21]: 65
- Plant response rating, Chickweed [5, 22]: 85
- Plant response rating, Chickweed [5, 23]: 90
- Plant response rating, Chickweed ([5]; 250 g ai/ha, scale 0 to 100): 90
- Plant response rating, Soybean (soybean (Glycine max); [13]): 35
- Plant response rating, Soybean (soybean (Glycine max); [14]): 45
- Plant response rating, Soybean (soybean (Glycine max); [15]): 60
- Plant response rating, Soybean (soybean (Glycine max); Postemergence, 250 g ai/ha, scale 0 to 100 (0 no effect, 100 complete control)): 60
- Plant response rating, Soybean (soybean (Glycine max); [17]): 5
- Plant response rating, Soybean (soybean (Glycine max); [18]): 10
- Plant response rating, Soybean (soybean (Glycine max); [19]): 10
- Plant response rating, Soybean (soybean (Glycine max); [20]): 35
- Plant response rating, Corn (corn (Zea mays); [13]): 20
- Plant response rating, Corn (corn (Zea mays); [14]): 20
- Plant response rating, Corn (corn (Zea mays); [15]): 25
- Plant response rating, Corn (corn (Zea mays); [16]): 30
- Plant response rating, Corn (corn (Zea mays); [17]): 5
- Plant response rating, Corn (corn (Zea mays); [18]): 5
- Plant response rating, Corn (corn (Zea mays); [19]): 15
- Plant response rating, Corn (corn (Zea mays); [20]): 40
- Plant response rating, Velvetleaf [6, 9]: 90
- Velvetleaf plant response rating [6, 10]: 100
- Plant response rating, Velvetleaf [6, 11]: 80
- Plant response rating, Velvetleaf [6, 12]: 90
- Plant response rating, Ducksalad (0 to 100 scale, 0 is no effect, 100 is complete control) [7]: 0
- Plant response rating, Crabgrass, Large [8, 13]: 20
- Plant response rating, Crabgrass, Large [8, 14]: 55
- Plant response rating, Crabgrass, Large [8, 15]: 65
- Plant response rating, Crabgrass, Large [8, 16]: 95
- Plant response rating, Crabgrass, Large [8, 17]: 100
- Plant response rating, Crabgrass, Large [8, 18]: 100
- Plant response rating, Crabgrass, Large [8, 19]: 100
- Plant response rating, Crabgrass, Large [8, 20]: 100
